Measured values: ChEMBL document CHEMBL1949656, “Characterization of a 1,4-disubstituted 1,2,3-triazole binding to T box antiterminator RNA” (Bioorg Med Chem, 2012)
Activity calls are given as the source filed them. The calls are words filed in the database; no cut-off is given here.

Tests used:
Nucleic Acid [1] = assay: Binding affinity to AM1A T box antiterminator model RNA assessed as melting temperature at 100 uM by UV-thermal denaturation method (reference value: 51 deg C)
Nucleic Acid [2] = assay: Binding affinity to AM1A T box antiterminator model RNA at 100 to 300 uM after 130 mins by FRET assay; assay type: nucleic-acid assay
Nucleic Acid [3] = assay: Binding affinity to C11U T box antiterminator model RNA at 100 to 300 uM after 130 mins by FRET assay; assay type: nucleic-acid assay
Nucleic Acid [4] = assay: Binding affinity to AM1A T box antiterminator model RNA assessed as change in melting temperature at 100 uM by UV-thermal denaturation method; assay type: nucleic-acid assay
Nucleic Acid [5] = assay: Stabilization of AM1A T box antiterminator model RNA assessed as reduction in flexibility at U6-C12 bulge region of RNA after 40 hrs by autoradiography based in-line probing assay; assay type: nucleic-acid assay
Nucleic Acid [6] = assay: Stabilization of AM1A T box antiterminator model RNA assessed as effect on flexibility of RNA after 40 hrs by autoradiography based in-line probing assay; assay type: nucleic-acid assay

CN(CCCc1ccccc1)Cc1cn(CC(O)COC(=O)NCc2ccccc2)nn1 (stereo unspecified)
Tm (Nucleic Acid [1]): 52 °C
Kd (Nucleic Acid [2]): 56 µM
Kd (Nucleic Acid [3]): 59 µM
Tm(app) (Nucleic Acid [4]): 69 °C
Activity (Nucleic Acid [5]): Active
Activity (Nucleic Acid [6]): Active
